Laboratory results published in PubChem BioAssay AID1259407 (Chemical Carcinogenesis Research Information System (CCRIS), 2018).
The source made the active and inactive calls. The rule behind the calls is not given here.

Tested on: CCRIS mutagenicity, Ames/micronucleus/aberration tests
Test: CCRIS mutagenicity studies
[1] = Test System: AMES SALMONELLA TYPHIMURIUM, Strain/Indicator: TA98, Metabolic Activation: NONE, Method: PREINCUBATION
[2] = Test System: AMES SALMONELLA TYPHIMURIUM, Strain/Indicator: TA100, Metabolic Activation: NONE, Method: PREINCUBATION
[3] = Test System: AMES SALMONELLA TYPHIMURIUM, Strain/Indicator: TA98, Metabolic Activation: RAT, LIVER, S-9, PCB, Method: PREINCUBATION
[4] = Test System: AMES SALMONELLA TYPHIMURIUM, Strain/Indicator: TA100, Metabolic Activation: RAT, LIVER, S-9, PCB, Method: PREINCUBATION

For `Cc1c(N)nc(C)c2c1[nH]c1ccccc12`, the mutagenic call (Test System: AMES SALMONELLA TYPHIMURIUM, Strain/Indicator: TA98, Metabolic Activation: HUMAN, BLOOD, CYTOSOL, Method: PREINCUBATION) was “active; positive”, the mutagenic call (Test System: AMES SALMONELLA TYPHIMURIUM, Strain/Indicator: TA98, Metabolic Activation: MONKEY, LIVER, S-9, Method: PREINCUBATION) was “active; positive” and the mutagenic call (Test System: AMES SALMONELLA TYPHIMURIUM, Strain/Indicator: TA98, Metabolic Activation: MOUSE, LIVER, MICROSOMES, TCDD, Method: STANDARD PLATE) was “active; positive”. For the same compound, the mutagenic call (Test System: AMES SALMONELLA TYPHIMURIUM, Strain/Indicator: TA98, Metabolic Activation: MOUSE, LIVER, MICROSOMES, Method: STANDARD PLATE) was “active; positive”, the mutagenic call (Test System: AMES SALMONELLA TYPHIMURIUM, Strain/Indicator: TA98, Metabolic Activation: RAT, BLADDER, S-9, PCB, Method: FLUCTUATION TEST) was “active; positive” and the mutagenic call (Test System: AMES SALMONELLA TYPHIMURIUM, Strain/Indicator: TA98, Metabolic Activation: RAT, HEPATOCYTES, AROCLOR 1254, Method: PREINCUBATION) was “active; positive”. For the same compound, the mutagenic call (Test System: AMES SALMONELLA TYPHIMURIUM, Strain/Indicator: TA98, Metabolic Activation: RAT, LIVER, S-9, AROCLOR 1254, Method: PREINCUBATION) was “active; positive”, the mutagenic call (Test System: AMES SALMONELLA TYPHIMURIUM, Strain/Indicator: TA100, Metabolic Activation: RAT, BLADDER, S-9, PCB, Method: FLUCTUATION TEST) was “active; positive” and the mutagenic call (Test System: AMES SALMONELLA TYPHIMURIUM, Strain/Indicator: TA100, Metabolic Activation: RAT, LIVER, S-9, AROCLOR 1254, Method: PREINCUBATION) was “inactive; negative”. The mutagenic call (Test System: AMES SALMONELLA TYPHIMURIUM, Strain/Indicator: YG1019, Metabolic Activation: RAT LIVER S-9, AROCLOR, Method: PREINCUBATION) was “active; positive”, the mutagenic call (Test System: CHINESE HAMSTER V-79, Strain/Indicator: V-79/8-AZAGUANINE, Metabolic Activation: NONE, Method: SUSPENSION/PLATE) was “active; positive” and the mutagenic call (Test System: CHINESE HAMSTER V-79, Strain/Indicator: V-79/8-AZAGUANINE, Metabolic Activation: S-9, Method: SUSPENSION/PLATE) was “active; positive”. The mutagenic call (Test System: CHINESE HAMSTER V-79, Strain/Indicator: V-79/OUABAIN, Metabolic Activation: NONE, Method: SUSPENSION/PLATE) was “inactive; negative”, the mutagenic call (Test System: CHINESE HAMSTER V-79, Strain/Indicator: V-79/OUABAIN, Metabolic Activation: S-9, Method: SUSPENSION/PLATE) was “inactive; negative” and the mutagenic call (Test System: UDS HAMSTER HEPATOCYTES, Strain/Indicator: THY INCORP, Metabolic Activation: NONE, Method: LIQUID SCINTILLATION COUNTING) was “active; positive”. For the same compound, the mutagenic call (Test System: UDS HUMAN HEPATOCYTES, Strain/Indicator: THY INCORP, Metabolic Activation: NONE, Method: AUTORADIOGRAPHY) was “active; positive”, the mutagenic call (Test System: UDS MOUSE HEPATOCYTES, Strain/Indicator: THY INCORP, Metabolic Activation: NONE, Method: AUTORADIOGRAPHY) was “active; positive” and the mutagenic call (Test System: UDS RAT HEPATOCYTES, Strain/Indicator: THY INCORP, Metabolic Activation: NONE, Method: AUTORADIOGRAPHY) was “inactive; negative”. For the same compound, the mutagenic call (Test System: UDS RAT HEPATOCYTES, Strain/Indicator: THY INCORP, Metabolic Activation: NONE, Method: LIQUID SCINTILLATION COUNTING) was “inactive; negative”.

For `Cc1cc(NS(=O)(=O)c2ccc(N)cc2)no1`, the mutagenic call (End Point: AMES SALMONELLA TYPHIMURIUM, Test System: TA98, Metabolic Activation: NONE, Method: STANDARD PLATE) was “active; positive” and the mutagenic call (End Point: AMES SALMONELLA TYPHIMURIUM, Test System: TA100, Metabolic Activation: NONE, Method: STANDARD PLATE) was “active; positive”.

`CCN1CCNC(=O)C1=O` was tested, and the mutagenic call [1] was “inactive; negative”, the mutagenic call (Test System: AMES SALMONELLA TYPHIMURIUM, Strain/Indicator: TA98, Metabolic Activation: RAT LIVER S-9, PHENOBARBITAL AND BETA-NAPHTHOFLAVONE, Method: PREINCUBATION) was “inactive; negative” and the mutagenic call [2] was “inactive; negative”. For the same compound, the mutagenic call (Test System: AMES SALMONELLA TYPHIMURIUM, Strain/Indicator: TA100, Metabolic Activation: RAT LIVER S-9, PHENOBARBITAL AND BETA-NAPHTHOFLAVONE, Method: PREINCUBATION) was “inactive; negative”, the mutagenic call (Test System: AMES SALMONELLA TYPHIMURIUM, Strain/Indicator: TA1535, Metabolic Activation: NONE, Method: PREINCUBATION) was “inactive; negative” and the mutagenic call (Test System: AMES SALMONELLA TYPHIMURIUM, Strain/Indicator: TA1535, Metabolic Activation: RAT LIVER S-9, PHENOBARBITAL AND BETA-NAPHTHOFLAVONE, Method: PREINCUBATION) was “inactive; negative”. For the same compound, the mutagenic call (Test System: AMES SALMONELLA TYPHIMURIUM, Strain/Indicator: TA1537, Metabolic Activation: NONE, Method: PREINCUBATION) was “inactive; negative”, the mutagenic call (Test System: AMES SALMONELLA TYPHIMURIUM, Strain/Indicator: TA1537, Metabolic Activation: RAT LIVER S-9, PHENOBARBITAL AND BETA-NAPHTHOFLAVONE, Method: PREINCUBATION) was “inactive; negative” and the mutagenic call (Test System: AMES SALMONELLA TYPHIMURIUM, Strain/Indicator: TA1538, Metabolic Activation: NONE, Method: PREINCUBATION) was “inactive; negative”. The mutagenic call (Test System: AMES SALMONELLA TYPHIMURIUM, Strain/Indicator: TA1538, Metabolic Activation: RAT LIVER S-9, PHENOBARBITAL AND BETA-NAPHTHOFLAVONE, Method: PREINCUBATION) was “inactive; negative”, the mutagenic call (Test System: E.COLI, Strain/Indicator: WP2UVRA, Metabolic Activation: NONE, Method: PREINCUBATION) was “inactive; negative” and the mutagenic call (Test System: E.COLI, Strain/Indicator: WP2UVRA, Metabolic Activation: RAT LIVER S-9, PHENOBARBITAL AND BETA-NAPHTHOFLAVONE, Method: PREINCUBATION) was “inactive; negative”.

`NC1CCCC(N)C1` (stereo not drawn) was tested, and the mutagenic call [1] was “inactive; negative”, the mutagenic call [3] was “inactive; negative” and the mutagenic call [2] was “inactive; negative”. The mutagenic call [4] was “inactive; negative”.

`c1cnc2cnncc2c1` was tested, and the mutagenic call [1] was “inactive; negative”, the mutagenic call [3] was “inactive; negative” and the mutagenic call [2] was “inactive; negative”. The mutagenic call [4] was “inactive; negative”.

With `O=C([O-])c1cccnc1Nc1cccc(C(F)(F)F)c1.O=C([O-])c1cccnc1Nc1cccc(C(F)(F)F)c1.[Cu+2]` the mutagenic call (Test System: AMES SALMONELLA TYPHIMURIUM, Strain/Indicator: TA97, Metabolic Activation: MOUSE, LIVER, S-9, Method: STANDARD PLATE) was “inactive; negative”, the mutagenic call (Test System: AMES SALMONELLA TYPHIMURIUM, Strain/Indicator: TA97, Metabolic Activation: NONE, Method: STANDARD PLATE) was “inactive; negative” and the mutagenic call (Test System: AMES SALMONELLA TYPHIMURIUM, Strain/Indicator: TA97, Metabolic Activation: RAT LIVER S-9, DELOR 103, Method: STANDARD PLATE) was “inactive; negative”. The mutagenic call (Test System: AMES SALMONELLA TYPHIMURIUM, Strain/Indicator: TA98, Metabolic Activation: MOUSE, LIVER, S-9, Method: STANDARD PLATE) was “inactive; negative”, the mutagenic call (Test System: AMES SALMONELLA TYPHIMURIUM, Strain/Indicator: TA98, Metabolic Activation: NONE, Method: STANDARD PLATE) was “inactive; negative” and the mutagenic call (Test System: AMES SALMONELLA TYPHIMURIUM, Strain/Indicator: TA98, Metabolic Activation: RAT LIVER S-9, DELOR 103, Method: STANDARD PLATE) was “inactive; negative”. The mutagenic call (Test System: AMES SALMONELLA TYPHIMURIUM, Strain/Indicator: TA100, Metabolic Activation: MOUSE, LIVER, S-9, Method: STANDARD PLATE) was “inactive; negative”, the mutagenic call (Test System: AMES SALMONELLA TYPHIMURIUM, Strain/Indicator: TA100, Metabolic Activation: NONE, Method: STANDARD PLATE) was “inactive; negative” and the mutagenic call (Test System: AMES SALMONELLA TYPHIMURIUM, Strain/Indicator: TA100, Metabolic Activation: RAT LIVER S-9, DELOR 103, Method: STANDARD PLATE) was “inactive; negative”. For the same compound, the mutagenic call (Test System: AMES SALMONELLA TYPHIMURIUM, Strain/Indicator: TA102, Metabolic Activation: MOUSE, LIVER, S-9, Method: STANDARD PLATE) was “inactive; negative”, the mutagenic call (Test System: AMES SALMONELLA TYPHIMURIUM, Strain/Indicator: TA102, Metabolic Activation: NONE, Method: STANDARD PLATE) was “inactive; negative” and the mutagenic call (Test System: AMES SALMONELLA TYPHIMURIUM, Strain/Indicator: TA102, Metabolic Activation: RAT LIVER S-9, DELOR 103, Method: STANDARD PLATE) was “inactive; negative”.
